We go through one compound from patent US8741659B2, “Composition for measuring the binding affinity between nucleic acid and test substance, and use thereof” (Osaka University, priority 2007, dated 2014).

The experiment relates to RRE. As to the kind of experiment: Displacement assay using X2S. The format is binding, HIV-1. The text has this: In this Example, X2S was used to measure a binding affinity between a test substance and RRE. As the test substance, Rev protein (supplied by Professor Takashi MORII, Graduates School of Energy Science, Kyoto University), aminoglycoside antibiotic neomycin (available from Sigma-Aldrich, product number; N-1876) (hereinafter, simply referred to as “neomycin”), and thrombin (available from Bachem, product number; AG H-8550) were used. […] The structure of Rev protein is shown in FIG. 9, and the amino acid sequence of Rev protein is shown in SEQ ID NO: 5. FIG. 9 is a view schematically illustrating the structure of Rev protein. Further, the structure of thrombin is shown in FIG. 10, and the amino acid sequence of thrombin is shown in SEQ ID NO: 6. FIG. 10 is a view schematically illustrating the structure of thrombin.
Firstly, in the same manner as in Example 3, X2S and RRE were dissolved in a cacodylate buffer solution (sodium cacodylate: 10 mM, pH 7.0; NaCl: 100 mM) each at 2 μM. Thus, an X2S-RRE solution was prepared.
To the X2S-RRE solution, Rev protein was added in steps at 0 μM, 0.4 μM, 0.8 μM, 1.2 μM, 1.6 μM, 2.0 μM, 2.4 μM, 2.8 μM, 3.2 μM, 3.6 μM, and 4.0 μM. Further, a fluorescence intensity was measured at each concentration. Similarly, to the X2S-RRE solution, neomycin was added in steps at 0 μM, 0.4 μM, 0.8 μM, 1.2 μM, 1.6 μM, 2.0 μM, 2.4 μM, 2.8 μM, 3.2 μM, 3.6 μM, and 4.0 μM. Further, a fluorescence intensity was measured at each concentration. Similarly, to the X2S-RRE solution, thrombin was added in steps at 0 μM, 0.4 μM, 0.8 μM, 1.2 μM, 1.6 μM, 2.0 μM, 2.4 μM, 2.8 μM, 3.2 μM, 3.6 μM, and 4.0 μM. Further, a fluorescence intensity was measured at each concentration. The fluorescence intensities were measured in the same manner as that described in Example 2.
FIG. 11 is a view illustrating a result of the measurement of a binding affinity between Rev protein and RRE; FIG. 12 is a view illustrating a result of the measurement of a binding affinity between neomycin and RRE; and FIG. 13 is a view illustrating a result of the measurement of a binding affinity between thrombin and RRE. In each of FIGS. 11 to 13, the horizontal axis represents the fluorescence wavelength, whereas the vertical axis represents the fluorescence intensity. […] Furthermore, along the direction of the arrow extending from the curved line at the bottom, the curved lines are arranged in order of increasing amount of the test substance which was added.
FIG. 14 is a view plotting the fluorescence intensities at a fluorescence wavelength of 453 nm shown in the results illustrated in FIGS. 11 to 13. The horizontal axis represents the concentration of each test substance, whereas the vertical axis represents the fluorescence intensity. In FIG. 14, the circle marks represent the result obtained in the case involving use of Rev protein, the square marks represent the result obtained in the case involving use of neomycin, and the triangle marks represent the result obtained in the case involving use of thrombin.
A displacement assay using X2S was performed in the same manner as that described in Example 5, except that, in this Example, fluorescence was measured also when Rev protein was added at concentrations of 4.4 μM and 4.8 μM.
FIG. 16 is a view illustrating the result of the displacement assay using X2S. The horizontal axis represents the fluorescence wavelength, whereas the vertical axis represents the fluorescence intensity.

For the compound `NCCOc1ccc2oc3ccc(OCCN)cc3c(=O)c2c1` [X2S, 2,7-bis(2-aminoethoxy)xanthen-9-one], for the setting “FIG. 11 compared with FIG. 15”, the “change in the fluorescence intensity, X2S compared with ethidium bromide” value is given as “greater in the case involving use of X2S than in the case involving use of ethidium bromide”. Also, where the note is “Rev protein up to 4.8 μM”, the “concentration at which a change in fluorescence intensity was still clearly observed” value is 3.2 µM and the “ultimate increase of fluorescence intensity” value was “approximately 80%”.
